“And” between values parts separate entries of the source, which are not always exact repeats. Equal entries are not always repeated.
Experiments:
[1] = system: diet-induced NASH obese insulin resistant mice; experiment: DIN mouse model: liver Sirius Red staining (% labeling, collagen deposition); assay type: in vivo; conditions: for Sirius red labeling: liver
Description: (§1) Male C57Bl/6J mice (8 weeks old) were housed in enriched ventilated cages (31×12.5×12.7 cm) throughout the experimental phase. Animals' cages litters were changed at least once a week. Animal were housed 5 per cage on inverted 12-hour light cycle (at 09:00 am lights off), 22±2° C. and 55±10% relative humidity. The acclimation period was 20 days. During the acclimation period, all mice were fed a standard diet (RM1 (E) 801492, SDS) and tap water ad libitum. After the acclimation period, mice were fed with the DIN diet (60% fat, cholesterol enriched) and fructose-enriched tap water ad libitum until the end of the experiment.
(§2) At 6 weeks of diet, mice were 4-hour fasted (09:00 am to 1:00 pm) and blood (150 μl/EDTA) was collected at 01:00 pm by retro-orbital bleeding under isoflurane anesthesia. Mice were then allocated in 2 homogenous groups (n=12/group) according to their plasma levels of ALT (average levels: 685U/L), AST (average levels: 627U/L) and HOMA-IR index (average value: 4.7), into 2 homogenous groups (see values at day 0 in Tables 15A and 15B ALT/AST and Tables 16A and 16B for HOMA-IR). Mice were then treated once daily by oral gavage with vehicle (Group 1) or Compound #37 at 20 mg/kg (Group 2) for 70 days.
Slides having a single hepatic lobe section stained with H&E and […] were digitized using a Nanozoomer from Hamamatsu. Sections were evaluated with knowledge of groups. In agreement with the unchanged hepatic triglycerides levels, oil red O staining and % labeling was not changed with Compound #37. A substantial reduction in Sirius Red labeling was also observed, leading to a 61% reduction (p<0.001 vs. vehicle) in % labeling.
To investigate whether Compound #37 improves pre-existing steatosis/NASH pathology, a study was conducted using a 16-week diet-induced NASH mouse model. In this model, mice develop steatosis that progresses with inflammation and fibrosis that mimic many of the observed pathologies in human nonalcoholic fatty liver disease (NAFLD) and NASH (Hebbard & George, 2010). […]

[2] = system: SCAP; experiment: DIN mouse model: hepatic SCAP gene expression; assay type: in vivo; set-up: key to 2^DDct: expression relative to vehicle group, normalized to 18S; conditions: 20 mg/kg group; for 18S: Gene Expression: SCAP table, 18S reference; for 2^DDct / DDct / Dct / SCAP: Gene Expression: SCAP
Description: Gene expression analysis. Hepatic expression levels of genes involved in lipid metabolism (FAS, SREBP1, ACC1, SCD1), cholesterol metabolism (HMG-CoAR, LDLR), SREBP proteolysis (SCAP, INSIG1), ER stress (PERK), oxidative stress (NRF2), inflammation (MCP-1), and fibrosis (collagen 1α1) were quantified by RTqPCR. Expression level was normalized to 18S gene expression and relative expression to vehicle group was calculated with the […] method.
as §1, §2
Hepatic expression levels of genes involved in lipid (FAS, SREBP1, ACC1, SCD1), cholesterol metabolism (HMG-CoAR, LDLR), in SREBP proteolysis (SCAP, INSIG1), in ER stress (PERK), oxidative stress (NRF2), and inflammation (MCP-1) were not changed. However, expression of collagen 1α1, involved in liver fibrosis, was reduced by 66% in mice treated with Compound #37 (p<0.05 vs. vehicle).

CC(C)Cc1cc(-c2nc(-c3ccc(NS(=O)(=O)C(F)(F)F)cc3Cl)cs2)ccn1 [Compound 37, N-(3-chloro-4-(2-(2-isobutylpyridin-4-yl)thiazol-4-yl)phenyl)-1,1,1-trifluoromethanesulfonamide]
Sirius Red % labeling reduction ([1]; 20 mg/kg, 70 days, p<0.001 vs. vehicle): 61% | Sirius red labeling ([1]; 20 mg/kg group, mean, n 11): 0.7% | Sirius red labeling ([1]; 20 mg/kg, individual animals): 0.5% and 0.8% (4×) and 0.6% (2×) and 1.0% and 0.9% and 0.7% (2×) | 18S ([2]; individual animal, 20 mg/kg): 12.55 (2×) and 12.84 and 12.43 and 12.35 (2×) and 12.59 and 11.73 and 12.51 and 11.5 and 11.55 | 18S ([2]; mean, n 11): 12.3 | 2^DDct ([2]; individual animal, 20 mg/kg): 1.37 and 1.72 (2×) and 0.65 and 0.71 and 0.91 and 1.46 and 1.39 and 0.64 and 0.59 and 1.60 | DDct ([2]; individual animal, 20 mg/kg): −0.45 and −0.78 (2×) and 0.63 and 0.49 and 0.13 and −0.54 and −0.47 and 0.65 and 0.77 and −0.68 | Dct ([2]; individual animal, 20 mg/kg): 11.61 and 11.28 (2×) and 12.69 and 12.55 and 12.19 and 11.52 and 11.59 and 12.71 and 12.83 and 11.38 | SCAP ([2]; individual animal, 20 mg/kg): 24.16 and 23.83 and 25.53 and 24.98 and 24.54 and 24.11 and 23.32 and 23.79 and 24.21 and 24.38 and 23.73 | 2^DDct ([2]; mean, n 11): 1.16 | DDct ([2]; mean, n 11): −0.10 | Dct ([2]; mean, n 11): 12.0 | SCAP ([2]; mean, n 11): 24.2

Reference: patent publication US10183015B2, “Heterocyclic compounds and methods of use” (Medivation Technologies LLC, priority 2015, dated 2019)
